We go through seven substances from article PMC5951580, “The effect of acylation with fatty acids and other modifications on HLA class II:peptide binding and T cell stimulation for three model peptides” (PLoS ONE, 2018).

Data set [1] deals with HLA-DR alleles. Further details: species or system human. To be noted: 15 HLA-DR alleles analyzed, IC50 of 1000 nM as binding threshold.
Data set [2] has as its target HLA-DQA1*01:02/B1*06:02 (Homo sapiens, UniProt P01909+P01920, A157G/A45G/C70R/E118A/E183D/E77G/F83G/G63E/H151Q/H199R/H252R/H253Q/I129T/I235V/I88M/INS77G/K197Q/L117V/L119F/L178F/L71W/L74F/L85Q/L91A/L98M/N214S/P87R/Q116E/Q76K/R102G/R240Q/R75S/R78G/S102Y/S185I/S41F/S97I/T121G/T122I/T172A/T86R/V229M/V68A/V73E/Y34C/Y41F/Y58L). It is filed as binding. Conditions: threshold IC50 1000 nM.

Data set [3] relates to PBMCs from healthy donors. Description: Two-week re-stimulation T cell assay with IFN-γ, IL-5 and IL-10 fluorospot. It is filed as cell-based, human. Conditions: for Frequency of responding donors (all cytokines) / Frequency of responding donors compared to the non-acylated peptide (in words) / Magnitude of the response (SFC, all cytokines) compared to the non-acylated peptide (in words): peptide 50 μg/ml, IFN-γ/IL-5/IL-10 fluorospot, n = 22; for Frequency of responding donors (all cytokines): 14 days stimulation with IL-2, re-stimulation 20h, one positive hit for one cytokine equals a positive donor; for Frequency of responding donors compared to the non-acylated peptide (in words) / Magnitude of the response (SFC, all cytokines) compared to the non-acylated peptide (in words): re-stimulation.

The conditions of data set [4]: cited from earlier work.
The conditions of data set [5]: human, in vivo; cited from earlier work.

Chain of HLA-DQA1*01:02/B1*06:02 (P01920 33-261 with the stated changes limits assumed, other chains not shown): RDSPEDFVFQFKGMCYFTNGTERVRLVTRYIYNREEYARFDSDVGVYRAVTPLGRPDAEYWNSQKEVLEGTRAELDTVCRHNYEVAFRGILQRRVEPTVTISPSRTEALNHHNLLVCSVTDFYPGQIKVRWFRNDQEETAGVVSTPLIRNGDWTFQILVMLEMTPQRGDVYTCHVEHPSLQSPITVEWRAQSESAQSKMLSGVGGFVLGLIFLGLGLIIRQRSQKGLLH

For the substance PKYVKQNTLKLAT [Peptide 1], the “HLA-DR alleles that bound the peptide with an affinity of 1000 nM or better (number/number analyzed)” value in data set [1] is 12/15. In addition, the “HLA-DR alleles that bound the peptide with an affinity of 1000 nM or better” value in data set [1] (radiolabeled peptide competition, two-day incubation, three or more independent experiments) was determined as 80%. Besides, in data set [2], the “HLA-DQA1*01:02/B1*06:02 binding capacity (binder / non-binder)” value is listed as “non-binder”. The “Cytokine response (IFN-γ, IL-5, IL-10 secreting cells) in words” value in data set [3] (peptide 5 μg/ml, 14 days stimulation, re-stimulation 20 hours, fluorospot, seven donors) is “significant numbers of IFN-γ, IL-5 and IL-10 producing cells”. The “Donors with an immunogenic response” value in data set [4] is listed as “approximately 30%”.
For “Peptide 7: Exendin-4 (1–39), 39-aa peptide used for the treatment of diabetes mellitus type 2, non-acylated”, the “Frequency of responding donors (all cytokines)” value (“Frequency … (all cytokines)” below) in data set [3] was 40%. The “Patients treated with the compound that show an immunogenic response” value in data set [5] is given as 40–60%.
With “Peptide 10: Exendin-4 acylated with C18 via Oeg-Oeg-LγGlu at 20 (WT R to K)”, in data set [3] (14 days stimulation), the “Frequency of responding donors compared to the non-acylated peptide (in words)” value is given as “further decreases” and the “Magnitude of the response (SFC, all cytokines) compared to the non-acylated peptide (in words)” value is on record as “decreased magnitudes”.
Regarding “Peptide 11: Exendin-4 acylated with C18 via Oeg-Oeg-LγGlu at 27 (K)”, the “Frequency … (all cytokines)” value in data set [3] is listed as “None”.
For the substance “Peptide 12: Exendin-4 acylated with C18 via Oeg-Oeg-LγGlu at C-terminus”, the “Frequency … (all cytokines)” value in data set [3] came to 10%.
Consider “Peptide 13: Exendin-4 acylated with 2 x C18 via Oeg-Oeg-LγGlu at 12 (K) + 27 (K)”, for which, in data set [3] (14 days stimulation), the “Frequency of responding donors compared to the non-acylated peptide (in words)” value was “decreased” and the “Magnitude of the response (SFC, all cytokines) compared to the non-acylated peptide (in words)” value is on record as “decreased”.
With “QLLDRGATALVLQVLNVPRLMTQD [Peptide 14, Vatreptacog alfa (285–309) peptide fragment, 25-aa, non-acylated]”, the “Frequency … (all cytokines)” value in data set [3] amounted to 45%.
